Test results reported in patent publication US20260265189A1, “NOVEL COMPOUND, AND PHARMACEUTICAL COMPOSITION COMPRISING SAME AS ACTIVE INGREDIENT” (SAPIENSBIO INC., priority 2022, published 2026).

Test system: α-SMA expression in MRC5 cells
Test: inhibition of α-SMA expression in MRC5 cells, image screening method
Type: cell-based
Settings: Homo sapiens; MRC5, compound 10 μM, TGF-β1 5 ng/mL, 72 hours, relative to TGF-β1 alone; read-out: Inhibitory activity (α-SMA expression inhibition)
Description: The ability of the compounds according to the present invention to inhibit the expression of α-SMA, which is a biomarker for pulmonary fibrosis, was evaluated by an image screening method. MRC5 cells were treated with the compound (10 μM) or DMSO under the condition of TGF-31 (5 ng/mL). 72 hours later, the cells were fixed with a 4% formaldehyde solution, treated with a 0.1% Triton-x100 solution, and treated with a 1% BSA solution to mask non-specific binding caused by antibodies. Anti-α-SMA-FITC (Sigma Aldrich) and anti-GAPDH (Cell Signaling Technology) were used as primary antibodies, and anti-mouse-TRITC was used as a secondary antibody. Imaging and analysis of the results were performed using Cytation5_Gen5_Version 3.12.08 (Bio Tek). Relative to the α-SMA expression level when TGF-31 was treated alone, the α-SMA expression level when both the compound and TGF-31 were treated was calculated as the ability of α-SMA expression inhibition of the corresponding compound.

Row | SMILES | inhibition at 10 µM
1 | O=C(NC1COC1)N1CCN(Cc2ccccn2)c2ccccc21 [Compound 99, N-(oxetan-3-yl)-4-(pyridin-2-ylmethyl)-3,4-dihydroquinoxaline-1(2H)-carboxamide] | 30 to 50%
2 | CC(C)CN1CCC[C@@H]1CNC(=O)N1CCN(c2ccc(F)cc2)c2cc(F)ccc21 [Compound 24, (R)-6-fluoro-4-(4-fluorophenyl)-N-((1-isobutylpyrrolidin-2-yl)methyl)-3,4-dihydroquinoxaline-1(2H)-carboxamide] | ≥ 70%
3 | CN1CC[C@@H](NC(=O)N2CCN(c3ccc(F)cc3)c3cc(F)ccc32)C1 [Compound 2, (R)-6-fluoro-4-(4-fluorophenyl)-N-(1-methylpyrrolidin-3-yl)-3,4-dihydroquinoxaline-1(2H)-carboxamide] | ≥ 70%
4 | O=C(NCC1CCNCC1)N1CCN(c2ccc(F)cc2)c2cc(F)ccc21 [Compound 33, 6-fluoro-4-(4-fluorophenyl)-N-(piperidin-4-ylmethyl)-3,4-dihydroquinoxaline-1(2H)-carboxamide] | 50 to 70%
5 | O=C(NCC1CC1)N1CCN(c2ccncc2)c2ccccc21 [Compound 74, N-(cyclopropylmethyl)-4-(pyridin-4-yl)-3,4-dihydroquinoxaline-1(2H)-carboxamide] | 30 to 50%
6 | CN1CCC(NC(=O)N2CCN(c3ccc(F)cc3)c3cc(F)ccc32)CC1 [Compound 30, 6-fluoro-4-(4-fluorophenyl)-N-(1-methylpiperidin-4-yl)-3,4-dihydroquinoxaline-1(2H)-carboxamide] | 50 to 70%
7 | COC1CCN(C(=O)N2CCN(c3ccc(F)cc3)c3cc(F)ccc32)C1 (stereo not drawn) [Compound 40, (6-fluoro-4-(4-fluorophenyl)-3,4-dihydroquinoxalin-1(2H)-yl)(3-methoxypyrrolidin-1-yl)methanone] | 10 to 30%
8 | CN1CCC(CNC(=O)N2CCN(Cc3ccccc3F)c3ccccc32)CC1 [Compound 89, 4-(2-fluorobenzyl)-N-((1-methylpiperidin-4-yl)methyl)-3,4-dihydroquinoxaline-1(2H)-carboxamide] | 50 to 70%
9 | O=C(N1CCCC1)N1CCN(C2CCCCC2)c2ccccc21 [Compound 108, (4-cyclohexyl-3,4-dihydroquinoxalin-1(2H)-yl)(pyrrolidin-1-yl)methanone] | 30 to 50%
10 | CS(=O)(=O)N[C@H]1CCN(C(=O)N2CCN(c3ccc(F)cc3)c3cc(F)ccc32)C1 [Compound 16, (S)-N-(1-(6-fluoro-4-(4-fluorophenyl)-1,2,3,4-tetrahydroquinoxaline-1-carbonyl)pyrrolidin-3-yl)methanesulfonamide] | 10 to 30%
11 | CN[C@H]1CCN(C(=O)N2CCN(c3ccc(F)cc3)c3cc(F)ccc32)C1 [Compound 12, (S)-(6-fluoro-4-(4-fluorophenyl)-3,4-dihydroquinoxalin-1(2H)-yl)(3-(methylamino)pyrrolidin-1-yl)methanone] | 30 to 50%
12 | N#Cc1ccc(N2CCN(C(=O)NC[C@H]3CCNC3)c3ccccc32)cc1 [Compound 79, (S)-4-(4-cyanophenyl)-N-(pyrrolidin-3-ylmethyl)-3,4-dihydroquinoxaline-1(2H)-carboxamide] | 10 to 30%
13 | CC(=O)N1CC[C@@H](NC(=O)N2CCN(c3ccccn3)c3ccccc32)C1 [Compound 70, (R)-N-(1-acetylpyrrolidin-3-yl)-4-(pyridin-2-yl)-3,4-dihydroquinoxaline-1(2H)-carboxamide] | 10 to 30%
14 | CC(C)CN1CCC(NC(=O)N2CCN(c3cnccn3)c3ccccc32)CC1 [Compound 82, N-(1-isobutylpiperidin-4-yl)-4-(pyrazin-2-yl)-3,4-dihydroquinoxaline-1(2H)-carboxamide] | 10 to 30%
15 | O=C(NCc1c[nH]cn1)N1CCN(c2ccc(F)cc2)c2cc(F)ccc21 [Compound 37, N-((1H-imidazol-4-)methyl)-6-fluoro-4-(4-fluorophenyl)-3,4-dihydroquinoxaline-1(2H)-carboxamide] | 30 to 50%
16 | CN1CCC(CNC(=O)N2CCN(c3ccc(F)cc3)c3cc(F)ccc32)CC1 [Compound 34] | 50 to 70%
17 | O=C(N[C@H]1CCNC1)N1CCN(c2ccc(F)cc2)c2cc(F)ccc21 [Compound 8, (S)-6-fluoro-4-(4-fluorophenyl)-N-(pyrrolidin-3-yl)-3,4-dihydroquinoxaline-1(2H)-carboxamide] | ≥ 70%
18 | CC(C)CN1CCC(CNC(=O)N2CCN(c3ccc(F)cc3)c3cc(F)ccc32)CC1 [Compound 35, 6-fluoro-4-(4-fluorophenyl)-N-((1-isobutylpiperidin-4-yl)methyl)-3,4-dihydroquinoxaline-1(2H)-carboxamide] | ≥ 70%

Row | SMILES | inhibition at 10 µM
19 | CC(C)N1CC(CNC(=O)N2CCN(c3ccc(F)cc3)c3cc(F)ccc32)C1 [Compound 46, 6-fluoro-4-(4-fluorophenyl)-N-((1-isopropylazetidin-3-yl)methyl)-3,4-dihydroquinoxaline-1(2H)-carboxamide] | 30 to 50%
20 | CC(C)CN1CC[C@@H](CNC(=O)N2CCN(c3ccc(F)cc3)c3cc(F)ccc32)C1 [Compound 27, (S)-6-fluoro-4-(4-fluorophenyl)-N-((1-isobutylpyrrolidin-3-yl)methyl)-3,4-dihydroquinoxaline-1(2H)-carboxamide] | ≥ 70%
21 | CN1CCC(NC(=O)N2CCN(Cc3ccccc3F)c3ccccc32)CC1 [Compound 88, 4-(2-fluorobenzyl)-N-(1-methylpiperidin-4-yl)-3,4-dihydroquinoxaline-1(2H)-carboxamide] | 50 to 70%
22 | CC(C)N1CC[C@@H](CNC(=O)N2CCN(c3ccc(F)cc3)c3cc(F)ccc32)C1 [Compound 26, (S)-6-fluoro-4-(4-fluorophenyl)-N-((1-isopropylpyrrolidin-3-yl)methyl)-3,4-dihydroquinoxaline-1(2H)-carboxamide] | 50 to 70%
23 | O=C(NC[C@H]1CCNC1)N1CCN(c2ccccn2)c2ccccc21 [Compound 71, (S)-4-(pyridin-2-yl)-N-(pyrrolidin-3-ylmethyl)-3,4-dihydroquinoxaline-1(2H)-carboxamide] | 30 to 50%
24 | CN1CC(CNC(=O)N2CCN(c3ccc(F)cc3)c3cc(F)ccc32)C1 [Compound 45, 6-fluoro-4-(4-fluorophenyl)-N-((1-methylazetidin-3-yl)methyl)-3,4-dihydroquinoxaline-1(2H)-carboxamide] | 50 to 70%
25 | CC(C)CC(=O)N1CCN(C(=O)NCC2CCNCC2)c2ccccc21 [Compound 125, 4-(3-methylbutanoyl)-N-(piperidin-4-ylmethyl)-3,4-dihydroquinoxaline-1(2H)-carboxamide] | 10 to 30%
26 | CN1CCN(C(=O)N2CCN(c3ccccc3Cl)c3ccccc32)CC1 [Compound 68, (4-(2-chlorophenyl)-3,4-dihydroquinoxalin-1(2H)-yl)(4-methylpiperazin-1-yl)methanone] | 30 to 50%
27 | CC(C)N1CC[C@H](CNC(=O)N2CCN(c3ccc(F)cc3)c3ccccc32)C1 [Compound 55, (R)-4-(4-fluorophenyl)-N-((1-isopropylpyrrolidin-3-yl)methyl)-3,4-dihydroquinoxaline-1(2H)-carboxamide] | 30 to 50%
28 | O=C(NC1CCNCC1)N1CCN(c2ccc(F)cc2)c2cc(F)ccc21 [Compound 29, 6-fluoro-4-(4-fluorophenyl)-N-(piperidin-4-yl)-3,4-dihydroquinoxaline-1(2H)-carboxamide] | 50 to 70%
29 | O=C(NCC1CCOCC1)N1CCN(Cc2ccccn2)c2ccccc21 [Compound 101, 4-(pyridin-2-ylmethyl)-N-((tetrahydro-2H-pyran-4-yl)methyl)-3,4-dihydroquinoxaline-1(2H)-carboxamide] | 30 to 50%
30 | O=C(NC1CCNCC1)N1CCN(c2ccc(F)cc2)c2ccccc21 [Compound 50, 4-(4-fluorophenyl)-N-(piperidin-4-yl)-3,4-dihydroquinoxaline-1(2H)-carboxamide] | 30 to 50%
31 | CC(C)CN1CC[C@@H](NC(=O)N2CCN(C3CCCCC3)c3ccccc32)C1 [Compound 106, (R)-4-cyclohexyl-N-(1-isobutylpyrrolidin-3-yl)-3,4-dihydroquinoxaline-1(2H)-carboxamide] | 30 to 50%
32 | O=C(NCC1CCNCC1)N1CCN(C(=O)c2ccccc2)c2ccccc21 [Compound 114, 4-benzoyl-N-(piperidin-4-ylmethyl)-3,4-dihydroquinoxaline-1(2H)-carboxamide] | 10 to 30%
33 | CN1CCC[C@@H]1CNC(=O)N1CCN(c2ccc(F)cc2)c2cc(F)ccc21 [Compound 22, (R)-6-fluoro-4-(4-fluorophenyl)-N-((1-methylpyrrolidin-2-yl)methyl)-3,4-dihydroquinoxaline-1(2H)-carboxamide] | ≥ 70%
34 | CC(C)CN[C@H]1CCN(C(=O)N2CCN(c3ccc(F)cc3)c3cc(F)ccc32)C1 [Compound 13, (S)-(6-fluoro-4-(4-fluorophenyl)-3,4-dihydroquinoxalin-1(2H)-yl)(3-(isobutylamino)pyrrolidin-1-yl)methanone] | ≥ 70%
35 | CN1CC[C@H](CNC(=O)N2CCN(c3ccc(F)cc3)c3cc(F)ccc32)C1 [Compound 18, (R)-6-fluoro-4-(4-fluorophenyl)-N-((1-methylpyrrolidin-3-yl)methyl)-3,4-dihydroquinoxaline-1(2H)-carboxamide] | 50 to 70%
36 | CC(C)CN1CC(CNC(=O)N2CCN(c3ccc(F)cc3)c3cc(F)ccc32)C1 [Compound 47, 6-fluoro-4-(4-fluorophenyl)-N-((1-isobutylazetidin-3-yl)methyl)-3,4-dihydroquinoxaline-1(2H)-carboxamide] | 50 to 70%
